From patent US20230405003A1, “APPLICATION OF THYMIDINE DERIVATIVE IN PREPARATION OF DRUGS” (ONQUALITY PHARMACEUTICALS CHINA LTD., priority 2020, published 2023)

Columns and labels:
Type in all cases: in vivo
[1] = test system: 5-FU-induced diarrhea in Balb/c mice; experiment: 5-FU-induced diarrhea mouse model (70 mg/kg/d i.p. for three days); details: 5-FU 70 mg/kg/d i.p. three days; for Food Uptake / Survival Rate / Diarrhea Grade: 12 days; for Diarrhea Grade: score 0-4; for Δ % BW on Day 9: (BW day 0 − BW day 9)/BW day 0, ± SEM
Experimental: (§1) Male Balb/c mice (7-8 weeks, 23-25 g) were i.p. injected at a dose of 70 mg/kg/d, and the injection was performed for three days. The mice in the group of blank was injected with 0.9% NaCl, and evaluated for the effect by observing the change of diarrhea grade, food uptake, and weight change. The severity of diarrhea was scored in accordance with the following standards: 0: normal feces, 1: soft feces, 2: slightly wet, soft feces, 3: wet, unformed feces, with moderate coloration in perianal region, 4: watery feces with heavy coloration of hair in perianal region. The severity of diarrhea was evaluated by occurrence scores of various grades of diarrhea (Scores 0 to 4) and average score of diarrhea. […] The models were stable, and satisfied the experimental requirements.
The male Balb/c mice (7-8 weeks, 23-25 g) were fed and adapted for 1 week, and then divided into groups, with 10 mice in each group for administration test. 5-FU was dissolved in a 0.9% NaCl solution, and the mice in the model group and the treatment group were all i.p. injected at a dose of 70 mg/kg/d. The administration doses are shown in Table 6, and the modeling was completed in three days. While modeling of injection administration of 5-FU, the thymidine derivative or the combination of thymidine derivative and uridine derivative was administered by gavage, a series of compounds were dissolved in a PBS solution containing 5% DMSO+1% HPMC. The mice were daily observed for counting the diarrhea status, food uptake, weight change (A % BW) (the weight changes recorded in the table is the value on Day 9) and other information. After 12 days, the experiments were completed and statistically analyzed for the results.

[2] = test system: hand-foot syndrome caused by Cytarabine in rats; experiment: Rat model of hand-foot syndrome caused by cytarabine, gel application; details: Cytarabine 120 mg/kg twice per day, 30 days
Experimental: (§2) After SD rats were fed and adapted for one week (about 200 g), the rats were divided into groups, with 10 rats in each group. Then, the rats were subject to gavage administration. Capecitabine was dissolved in a 1:1 mixed solution of castor oil and ethanol and diluted for three times with PBS buffer. After gavage, the rats were fixed with a fixed cylinder, and a gel of thymidine derivative (or a compounded gel of thymidine derivative and uridine derivative) was applied to double hind paws (about 1 cm*3 cm) of the rats in group of administration (the types and concentrations are shown in Table 4), and a blank gel was applied to the group of blank (as a blank control). After approximately 4 hours of application, the rats were released after 4 hours, wiped with clean water to remove any residual drug at the application site, and allowed back to the cage. The thymidine derivative gel (or the compounded gel of thymidine derivative and uridine derivative) was administered with gavage every day. The gavage and application tests are repeated daily until the group of blank has developed obvious hand-foot syndrome.
(§3) The effects of thymidine derivative or a combination of thymidine derivative and uridine derivative on the chemotherapeutic drug-induced hand-foot syndrome in a rat model were tested according to the method in Examples 30-40. At the same time, paws of rats after treatment with the drug were taken and observed for their inflammation by hematoxylin-eosin staining (HE) and immunohistochemical staining (IHC).
(§4) The test thymidine derivative or the combination of thymidine derivative and uridine derivative, as well as the final concentration of the test compounds were shown in Table 8. Table 8 lists the animal experiment combination of a chemotherapeutical drug and the thymidine derivative gel (or the compound gel of thymidine derivative and uridine derivative) and the corresponding experimental results (wherein, the data in the column of control rate=the occurrence rate of hand-foot syndrome in Group of blank—the occurrence rate of hand-foot syndrome in Group of administration).

[3] = test system: 5-FU-induced diarrhea in Balb/c mice; experiment: 5-FU-induced diarrhea mouse model (175 mg/kg single i.p.); details: 5-FU 175 mg/kg single i.p.; for Survival Rate / Average Diarrhea Grade: 6 days; for Average Diarrhea Grade: score 0-4
Experimental: 7-8-week-old male Balb/c mice were used to establish a 5-FU induced diarrhea model to test the effect of the thymidine derivative or the combination of thymidine derivative and uridine derivative on the relief of diarrhea.
Modeling dose of 5-Fu: 175 mg/kg; single administration, intraperitoneal injection (ip.);
Administration mode of the compound to test (thymidine derivative or combination of thymidine derivative and uridine derivative): single administration, by gavage, advance administration of the compound to test at various time points prior to intraperitoneal injection of 5-FU. The compound to test was administered 1 h prior to the administration of 5-FU, a certain amount of 5-FU was injected intraperitoneally 1 h later, and the compound to test was administered once again 7 h after the injection of 5-FU.
The mice were fed and adapted for one week, and then divided into groups, with 10 mice in each group for administration test.
as §1, with “The” for “Male Balb/c mice (7-8 weeks, 23-25 g) were i.p. injected at a dose of 70 mg/kg/d, and the injection was performed for three days. The”, “Group” for “group”, “evaluated” for “evaluated for”
5-FU was dissolved in a 0.9% NaCl solution, the mice in the model group and the treatment group were all i.p. injected at a dose of 175 mg/kg/d, […]. While modeling of injection administration of 5-FU, the thymidine derivative or the combination of thymidine derivative and uridine derivative was administered by gavage, and the compounds to test were dissolved in a PBS solution containing 5% DMSO+1% HPMC. Body weight was weighed daily to count the weight change (Δ % BW, the weight changes recorded in the table were the values on Day 6), and the food was weighed daily to calculate the food uptake. The mice were daily observed for their clinical status, e.g., activity, diarrhea, hair, fighting, etc. After 6 days, the experiments were completed and statistically analyzed for the results.

[4] = test system: hand-foot syndrome caused by Doxorubicin in rats; experiment: Rat model of hand-foot syndrome caused by doxorubicin, gel application; details: Doxorubicin 7 mg/kg tail intravenous injection once every three days for 20 days, gel 3 wt%, 30 days
Experimental: as §2, §3, §4

**Q.** How did the “Food Uptake” value ([1]; 37 mpk BID PO) turn out when `CC(=O)OCC1OC(n2cc(C)c(=O)[nH]c2=O)CC1OC(C)=O` (centres unmarked) [T1] was run?
**A.** Its value is 155.

**Q.** And the “Survival Rate” value ([1]; 37 mpk BID PO)?
**A.** The value was 100%.

**Q.** And the “Diarrhea Grade” value ([1]; 37 mpk BID PO)?
**A.** Its value is 1.4.

**Q.** What about the “Food Uptake” value ([1]; 75 mpk BID PO) of the same compound?
**A.** Its value is 100.

**Q.** What about the “Survival Rate” value ([1]; 75 mpk BID PO) of the same compound?
**A.** The value was 80%.

**Q.** And the “Diarrhea Grade” value ([1]; 75 mpk BID PO)?
**A.** Its value is 1.3.

**Q.** What about the “Food Uptake” value ([1]; 150 mpk BID PO) of the same compound?
**A.** The value was 89.

**Q.** And the “Survival Rate” value ([1]; 150 mpk BID PO)?
**A.** The value was 80%.

**Q.** What about the “Diarrhea Grade” value ([1]; 150 mpk BID PO) of the same compound?
**A.** Its value is 1.5.

**Q.** And the “Δ % BW on Day 9” value ([1]; 37 mpk BID PO)?
**A.** Its value is 4.3% ± 3.7.

**Q.** And the “Δ % BW on Day 9” value ([1]; 75 mpk BID PO)?
**A.** Its value is 3.8% ± 1.6.

**Q.** What about the “Δ % BW on Day 9” value ([1]; 150 mpk BID PO) of the same compound?
**A.** Its value is 16.3% ± 6.5.

**Q.** With `Cc1cn([C@H]2C[C@H](O)[C@@H](COC(=O)[C@H](C)c3ccc(CC(C)C)cc3)O2)c(=O)[nH]c1=O` [T32] as the compound, how does the “Control Rate Forepaws” value ([2]; gel 2 wt%) read?
**A.** The value was 33.33%.

**Q.** And the “Control Rate Hindpaws” value ([2]; gel 2 wt%)?
**A.** The value was 33.33%.

**Q.** For `Cc1ccc(C(=O)c2ccc(CC(=O)O[C@H]3C[C@H](n4cc(C)c(=O)[nH]c4=O)O[C@@H]3CO)n2C)cc1` [T45], which “Δ % BW (on Day 6)” value ([3]; 15 mpk gavage) is on record?
**A.** Its value is −0.34% ± 0.36%.

**Q.** What about the “Survival Rate” value ([3]; 15 mpk gavage) of the same compound?
**A.** Its value is 100%.

**Q.** What about the “Average Diarrhea Grade” value ([3]; 15 mpk gavage) of the same compound?
**A.** Its value is 1.4.

**Q.** Which results are given for `Cc1cn([C@H]2C[C@H](OC(=O)C(C)c3cccc(C(=O)c4ccccc4)c3)[C@@H](CO)O2)c(=O)[nH]c1=O` (some centres unmarked) [T50]?
**A.** Δ % BW (on Day 6) ([3]; 50 mpk gavage): 2.08% ± 0.86%; Survival Rate ([3]; 50 mpk gavage): 100%; Average Diarrhea Grade ([3]; 50 mpk gavage): 1.1

**Q.** What does the source list for `COc1ccc2cc([C@H](C)C(=O)OC[C@H]3O[C@@H](n4cc(C)c(=O)[nH]c4=O)C[C@@H]3O)ccc2c1` [T25]?
**A.** Control Rate Forepaws [4]: 37.50%; Control Rate Hindpaws [4]: 62.50%; Control Rate Forepaws ([2]; gel 3 wt%): 42.86%; Control Rate Hindpaws ([2]; gel 3 wt%): 57.14%

**Q.** What does the source list for `Cc1ccc(C(=O)c2ccc(CC(=O)OC[C@H]3O[C@@H](n4cc(C)c(=O)[nH]c4=O)C[C@@H]3O)n2C)cc1` [T36]?
**A.** Δ % BW (on Day 6) ([3]; 50 mpk gavage): 2.25% ± 0.54%; Survival Rate ([3]; 50 mpk gavage): 100%; Average Diarrhea Grade ([3]; 50 mpk gavage): 1.6

**Q.** How did the “Food Uptake” value ([1]; 50 mpk BID PO) turn out when `CC(=O)OC[C@H]1O[C@@H](n2cc(C)c(=O)[nH]c2=O)C[C@@H]1O` [T3] was run?
**A.** Its value is 109.

**Q.** And the “Survival Rate” value ([1]; 50 mpk BID PO)?
**A.** The value was 70%.

**Q.** What about the “Diarrhea Grade” value ([1]; 50 mpk BID PO) of the same compound?
**A.** The value was 1.6.

**Q.** What about the “Δ % BW on Day 9” value ([1]; 50 mpk BID PO) of the same compound?
**A.** The value was 8.4% ± 3.2.

**Q.** Which results are given for `CC(=O)O[C@H]1C[C@H](n2cc(C)c(=O)[nH]c2=O)O[C@@H]1CO` [T2]?
**A.** Food Uptake ([1]; 75 mpk BID PO): 123; Survival Rate ([1]; 75 mpk BID PO): 100%; Diarrhea Grade ([1]; 75 mpk BID PO): 1.4; Δ % BW on Day 9 ([1]; 75 mpk BID PO): 6.6% ± 3.1
